The numbers were not newly measured in US20110212189A1, “GASTRORETENTIVE ORAL HIGH DOSE ZINC PREPARATIONS” (ADEONA PHARMACEUTICALS, INC., priority 2009, published 2011), which cites them from elsewhere.

For the data set the following is noted: 50 mg elemental zinc taken with food.

As to `O=S(=O)([O-])[O-].[Zn+2]` [zinc sulphate], the nausea/vomiting effects entry is on record as “same effects have been observed”.
